US20160271155A1, “Vitamin Formulations” (NESTEC S.A., priority 2013, published 2016)

Assays:
[1] = Absorption assessment in a rat model (oral pharmacokinetics); assay type: in vivo, Sprague Dawley rat; conditions: rats, oral gavage
Excerpt: Each group (formulation) had 8 rats (n=8).
Vertical bars represent one standard error of the means (n=8).
The table contains various pharmacokinetic parameters in rats orally administered with various methylfolate Ca (B9) formulations. Shown as Average±SD (% over the 1:0 control formulation).

[2] = Concentration of B9 in water and solution appearance at B9:stevioside ratios (HPLC); conditions: for Solution Appearance: 15 mg/mL B9 in water
Procedure: Vitamin B9 (5-methyl folate, MW 459.46) was formulated using stevioside to form a complex.
All water solutions were prepared to contain 15 mg/mL B9 and filtered before HPLC analysis.

[3] = Particle size of B9:stevioside solutions; assay type: physicochemical; conditions: Homogenization for 5 min and heat at 80° for 5 min; no unit in table (b98 speaks of nm)
Excerpt: In certain instances, the stevioside: B9 complex comprises a nanoparticle, or a nanomicelle, with a characteristic size distribution of approximately 2 nm to about 4 nanometers. This size, along with their physical and chemical properties, is believed to be important regarding their bioavailability enhancement properties. Nanoparticle size distribution can be measured using Dynamic Light Scattering (DLS).

[4] = tested on: Caco-2 cell monolayer; experiment: Absorption assessment in Caco-2 cell monolayer; assay type: in vitro ADME
Excerpt: The Caco-2 cell monolayer model is the standard for predicting human oral absorption. The test samples included: B9:stevioside at 1:0; 1:4; 1:10 and 1:20.
Table 4 tabulates the permeability of methylfolate calcium (B9) in Caco-2 monolayer cell culture.

[5] = dose equivalent to 19 mg/70 kg person, n=8, Average±SD

## CN1c2c(nc(N)[nH]c2=O)NCC1CNc1ccc(C(=O)N[C@@H](CCC(=O)[O-])C(=O)O)cc1.CN1c2c(nc(N)[nH]c2=O)NCC1CNc1ccc(C(=O)N[C@@H](CCC(=O)[O-])C(=O)O)cc1.[Ca+2] (stereo partly drawn) [B9:ST 1:0]
[1]; 19 mg/70 kg person equivalent
  AUC0-∞, % over the 1:0 control formulation: (100) %
  AUC^0-12, % over the 1:0 control formulation: (100) %
  CL, % over the 1:0 control formulation: (100) %
  Cmax, % over the 1:0 control formulation: (100) %
  MRT0-∞, % over the 1:0 control formulation: (100) %
  T1/2, % over the 1:0 control formulation: (100) %
  Tmax, % over the 1:0 control formulation: (100) %
  Vss, % over the 1:0 control formulation: (100) %
[1]; [5]
  CL: 0.69 ± 0.06 mL/h kg^−1
  Cmax: 0.63 ± 0.04955 µg/mL
  MRT0-∞: 12.41 ± 2.40 h
  T1/2: 8.60 ± 1.92 h
  Tmax: 1.59 ± 0.36 h
  Vss: 0.0077 ± 0.00095 L/kg
[2]; Homogenization for 5 min and heat at 80° for 5 min
  Solution Appearance: Suspension
[2]; Homogenization for 5 min and heat at 80° for 5 min, prepared to contain 15 mg/mL B9, filtered before HPLC
  Concentration (mg/mL in water): 9.2 mg/mL
[2]; No homogenization or heat
  Solution Appearance: Suspension
[3]
  Particle Size MN: 1,865
  Particle Size MV: 1,917
[4]; Caco-2 monolayer
  permeability in Caco-2 cell monolayer assay: permeable
[4]; Caco-2 monolayer, 76 μg/mL B9, 2 hr
  Permeation enhancement (over 1:0): 1.00
[4]; Caco-2 monolayer, 76 μg/mL B9, assay duration 2 hr
  Papp (A-B): 5.89 ± 0.245 10^−6 · cm· s^−1
[4]; predicted from the Caco-2 value
  predicted oral absorption: 70-80%
[4]; text summary of Table 4, unit not given
  Caco-2 value (rounded): 6
